Blank lines part the entries; values can stand above or below the molecule they belong to.
Assays:
Apc^min/+ mice [1] = experiment: Intestinal tumorigenesis in Apc^Min/+ mice gavaged with L. gallinarum; type: in vivo; settings: male and female Apc^Min/+ mice with CH-223191 treatment
Description: […] Apc^Min/+ mice at 5 to 6 weeks old were divided into 3 groups with or without CH-223191 treatment: (1) control; (2) E. coli MG1655; and (3) L. gallinarum. L. gallinarum and E. coli MG1655 were cultured in MRS broth (Difco Laboratories, Detroit, MN) and BHI broth, respectively. After one day, 1.0×10^8 colony-forming units (CFUs) bacteria were collected and resuspended in 100 ul PBS. Mice were gavaged once daily for 8 weeks and body weight and stool were examined weekly.
Mouse colonoscopy (Karl Storz Endoskope, Tuttlingen, Germany) was performed prior to sacrifice. The colonoscope was inserted into the anus and advanced proximally under direct visualization, facilitated by air insufflation, and representative pictures of the colon tumor from each group were recorded. After 8 weeks of gavage, mice were anaesthetized and sacrificed. Small intestines and colons of mice were longitudinally opened and rinsed with PBS. Total number of tumors in small intestine and colon were recorded. Size of each tumor was measured using previous published formula^42. All animal studies were performed in accordance with guidelines approved by the Animal Experimentation Ethics Committee of The Chinese University of Hong Kong.
To investigate the effect of L. gallinarum on colorectal tumorigenesis, Apc^Min/+ mice were first used. […]

[2] = system: CRC cell lines (HCT116 and LoVo); experiment: Cell viability (MTT) assay, CRC cell lines; type: cell-based
Description: After culturing L. gallinarum or E. coli MG1655 for 1-2 days, the bacterial concentration in each culture medium was measured using NanoDrop spectrophotometer (NanoDrop Technologies, Wilmington, DE). BHI cultures were diluted to ensure equal concentrations of L. gallinarum and E. coli. Culture supernatants were then collected by centrifugation at 5,000 rpm for 10 minutes, followed by sterile filtration with a 0.22-μm membrane. Filtrates were collected and termed as L. gallinarum culture supernatant (LGCS) or E. coli MG1655 culture supernatant (ECCS). Bacterial culture supernatant was separated into low-molecular-weight (LMW) and high-molecular-weight (HMW) using Amicon Ultra-15 Centrifugal Filter Units with a pore size of 3 kilodalton (kDa, Millipore, Bedford, MA). After centrifugation in a swinging bucket rotor at 4,000 g for 30 minutes, cells were cultured in medium containing […] or control broth (LMW, 10%; HMW, 1%). The bacterial supernatants were heated at 100° C. for 30 minutes or treated with proteinase k (50 ug/ml; QIAGEN GmbH, Hilden, Germany). […] Cell proliferation was measured by MTT assay for 5 consecutive days. The amount of MTT formazan product was determined by measuring absorbance at a wavelength of 570 nm (OD570) with a microplate reader (Multiskan GO Microplate Spectrophotometer, Thermo Scientific, Vantaa, Finland). […]

[3] = biological target: T1, aryl hydrocarbon receptor (AhR) (Homo sapiens, UniProt P35869); experiment: Transcription of AhR after AhR antagonist; type: cell-based; settings: 100 nM
T1 construct: endogenous in cells
T1 sequence (P35869 11-848): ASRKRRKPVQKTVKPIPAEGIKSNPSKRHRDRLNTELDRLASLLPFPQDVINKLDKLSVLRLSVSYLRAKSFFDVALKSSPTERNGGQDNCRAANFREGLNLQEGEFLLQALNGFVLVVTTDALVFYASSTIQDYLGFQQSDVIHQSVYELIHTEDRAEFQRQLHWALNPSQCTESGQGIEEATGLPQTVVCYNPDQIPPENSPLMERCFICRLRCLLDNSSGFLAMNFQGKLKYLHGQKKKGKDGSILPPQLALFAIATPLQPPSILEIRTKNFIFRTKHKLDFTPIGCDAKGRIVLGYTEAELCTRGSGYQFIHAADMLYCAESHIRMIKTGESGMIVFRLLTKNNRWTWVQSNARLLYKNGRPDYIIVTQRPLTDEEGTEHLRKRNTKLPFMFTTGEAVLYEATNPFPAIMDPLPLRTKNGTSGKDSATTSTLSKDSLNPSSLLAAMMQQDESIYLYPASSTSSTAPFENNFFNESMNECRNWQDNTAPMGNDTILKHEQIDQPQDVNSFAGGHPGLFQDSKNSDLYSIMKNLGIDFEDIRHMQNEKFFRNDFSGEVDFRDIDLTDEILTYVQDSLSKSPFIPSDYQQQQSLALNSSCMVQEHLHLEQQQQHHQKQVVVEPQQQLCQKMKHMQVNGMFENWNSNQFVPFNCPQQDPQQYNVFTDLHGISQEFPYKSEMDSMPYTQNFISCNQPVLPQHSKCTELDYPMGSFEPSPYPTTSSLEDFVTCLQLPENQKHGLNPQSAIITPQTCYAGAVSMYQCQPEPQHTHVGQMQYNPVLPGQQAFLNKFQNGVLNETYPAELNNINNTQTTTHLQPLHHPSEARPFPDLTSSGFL

[4] = system: CRC cell lines, HCT116 and LoVo; experiment: Apoptosis assay (Annexin V-PE / 7-AAD flow cytometry), CRC cell lines; type: cell-based; settings: FIG. 18F
Description: Cells were plated on 6-well plates 24 hours prior to treatment, and cultured in medium containing 10% […] or control broth. CRC patient-derived organoids were cultured on 6-well plates, and 10% […] or control broth was added to Matrigel and growth medium. After treatment, cells and organoids were digested in 0.25% trypsin-EDTA (Gibco-Invitrogen Corp., Grand Island, NY) and TrypLE, respectively. For apoptosis assay, the proportion of apoptotic cells was evaluated by dual staining with Annexin V-PE and 7-Aminoactinomycin D (7-AAD) (BD Pharmingen, San Jose, CA). Combination of Annexin V-PE and 7-AAD staining distinguished early apoptotic cells (Annexin V+, 7-AAD-) and late apoptotic cells (Annexin V+, 7-AAD+). For cell cycle analysis, cells treated with 10% […] or control broth for 1 day were fixed and stained with 50 μg/ml propidium iodide (PI) (BD Pharmingen). Cell cycle of all stained cells were analyzed using […] cell sorter (BD Biosciences, San Jose, CA).

Apc^min/+ mice [5] = experiment: Gavage of ILA into Apc^Min/+ mice; type: in vivo; settings: gavage 20 mg/kg
Description: Functional investigation of ILA in CRC tumorigenesis was then performed in vivo. […] Moreover, additional experiments were performed to investigate if antagonizing ILA could abrogate L. gallinarum medicated anti-cancer effect. […] Thus, ILA can contribute, at least in part, to the tumor-suppressive effect of L. gallinarum.

transcription of AhR [3]: significantly suppressed
SMILES: Cc1ccccc1N=Nc1ccc(NC(=O)c2ccnn2C)c(C)c1 [CH-223191]
effect on CRC suppression by L. gallinarum in Apc^Min/+ mice (Apc^min/+ mice [1]): abolished the effect of L. gallinarum in suppressing CRC | effect on CRC suppression by L. gallinarum in vitro ([2]; CRC cells pre-treated with 100 nM for 12 hours before culture supernatant): abolished the effect of L. gallinarum in suppressing CRC

SMILES: O=C(O)C(O)Cc1c[nH]c2ccccc12 (stereo not drawn) [ILA, indole-3-lactic acid]
cell viability of CRC cells ([2]; same amount of ILA as produced from L. gallinarum): decreased substantially | cell apoptosis of CRC cells [4]: significantly increased | cells with positive TUNEL staining, adjacent normal tissues (Apc^min/+ mice [5]): but not in adjacent normal tissues | cells with positive TUNEL staining, tumor tissues (Apc^min/+ mice [5]): increased | tumor number (Apc^min/+ mice [5]): significantly reduced | tumor size (Apc^min/+ mice [5]): significantly reduced

Reference: patent publication US12636325B2, “Probiotic compositions for treating and preventing colorectal cancer” (The Chinese University of Hong Kong, priority 2021, dated 2026)
